Measured values from patent publication US20120101167A1, “Treatment of ocular and cerebral ischemia” (priority 2010, published 2012).

Experiments:
[1] = test system: glaucomatous monkeys; assay: IOP and PBF responses in glaucomatous monkeys to a single topical unilateral application; assay type: in vivo, monkey; settings: single topical unilateral 0.05 mg, four glaucomatous monkeys
Procedure: (§1) 1. The Intraocular pressure and pulse form. The Langham pneumatic digitized tonometer was used to make continuous recordings of the intraocular pressure and its pulsatile character. This recording system provides the steady state IOP and the form of the IOP pulse with an accuracy equal to a manometric recording. The pulsatile ocular blood flow is evaluated from the amplitude of the individual pulses using the known pressure/volume relation of living human eyes. Langham, M. E., Farrell, R. A., O'Brien V., Silver, D. M., Non-Invasive Measurement of Pulsatile Ocular Blood Flow in the Human Eye (Eds., Lambrou G. N., Greve E.) pp. 93-99; Kugler and Ghedini, Amsterdam (1989).

[2] = test system: conscious rabbits; assay: Time course of IOP and ocular pulsatile blood flow in conscious rabbits after single topical application; assay type: in vivo, rabbit; settings: six conscious rabbits; for Intraocular Pressure (IOP), Treated / Pulsatile Blood flow, Treated: treated eye, single topical 0.025% aqueous solution pH 7.40; for Intraocular Pressure (IOP), Difference / Pulsatile Blood flow, Difference: treated minus control eye, single topical 0.025% solution
Procedure: as §1

[3] = test system: healthy human subjects; assay: Steady state IOP and pulsatile blood flow in healthy human subjects given repeated topical unilateral applications; assay type: in vivo; settings: five healthy human subjects; for Intraocular Pressure (IOP), Treated / Pulsatile Blood flow, Treated: treated eye, 30 μl 0.025% solution topical unilateral at 0, 12, ... 96 hr; for Intraocular Pressure (IOP), Difference / Pulsatile Blood flow, Difference: treated minus control eye, 0.025% solution every 12 hr
Procedure: as §1

[4] = test system: glaucoma patients; assay: IOP, pulsatile blood flow, visual performance, relative scotomas and stability of differential light sensitivity in glaucoma patients under long-term topical treatment; assay type: in vivo, human
Text: Elevated IOP is a risk factor associated with the development of glaucoma but it is not the disease itself. The recent recognition that a large percentage of glaucoma patients never experience elevated IOP has increased the possibility that the ocular hypotensive drug has the undesirable action of decreasing ocular blood flow. This possibility has been supported by numerous studies and confirmed in the prolonged longitudinal studies on individual glaucoma patents (Table 1). With increased ocular blood flow, the vision improved whilst with a drug having equal ocular hypotensive action, but causing decreased ocular blood flow run vision worsened. […] The Intraocular pressure and pulse form. The […] pneumatic digitized tonometer was used to make continuous recordings of the intraocular pressure and its pulsatile character. This recording system provides the steady state IOP and the form of the IOP pulse with an accuracy equal to a manometric recording. The pulsatile ocular blood flow is evaluated from the amplitude of the individual pulses using the known pressure/volume relation of living human eyes. […]'Brien V., Silver, D. M., Non-Invasive Measurement of Pulsatile Ocular Blood Flow in the Human […] and […], Amsterdam (1989).

[5] = difference clonidine treatment minus timolol treatment, five glaucoma patients
[6] = five glaucoma patients, topical 0.25% clonidine b.i.d., years 6, 7 and 8 (after timolol)
[7] = difference timolol treatment minus prior, five glaucoma patients
[8] = five glaucoma patients, topical timolol 0.25-0.50% b.i.d., years 3, 4 and 5

SMILES: CN[C@H](C)[C@@H](O)c1ccc(OC(=O)C(C)(C)C)c(OC(=O)C(C)(C)C)c1 (single isomer, unassigned) [(+) erythro isomer of DPαMeEp, reference compound]
- Intraocular Pressure (IOP), Treated ([1]; Table 5, treated eye, 0 hr): 36.8 ± 1.94 mmHg
- Pulsatile Blood flow, Treated ([1]; Table 5, treated eye, 0 hr): 564 ± 16 µL/min
- Intraocular Pressure (IOP), Treated ([1]; Table 5, treated eye, 1 hr): 36.3 ± 3.17 mmHg
- Pulsatile Blood flow, Treated ([1]; Table 5, treated eye, 1 hr): 555 ± 26 µL/min
- Intraocular Pressure (IOP), Treated ([1]; Table 5, treated eye, 3 hr): 35.0 ± 2.28 mmHg
- Pulsatile Blood flow, Treated ([1]; Table 5, treated eye, 3 hr): 575 ± 22 µL/min
- Intraocular Pressure (IOP), Treated ([1]; Table 5, treated eye, 6 hr): 36.8 ± 3.31 mmHg
- Pulsatile Blood flow, Treated ([1]; Table 5, treated eye, 6 hr): 564 ± 23 µL/min
- Intraocular Pressure (IOP), Treated ([1]; Table 5, treated eye, 24 hr): 34.6 ± 2.76 mmHg
- Pulsatile Blood flow, Treated ([1]; Table 5, treated eye, 24 hr): 549 ± 27 µL/min

SMILES: CN[C@@H](C)[C@H](O)c1ccc(OC(=O)C(C)(C)C)c(OC(=O)C(C)(C)C)c1 (single isomer, unassigned) [(−) erythro isomer of DPαMeEp, dipivalyl α MeEp]
- Intraocular Pressure (IOP), Treated ([2]; 0 hr): 19.4 ± 0.7 mmHg
- Pulsatile Blood flow, Treated ([2]; 0 hr): 651 ± 28 µL/min
- Intraocular Pressure (IOP), Treated ([2]; 1 hr): 13.0 ± 0.5 mmHg
- Pulsatile Blood flow, Treated ([2]; 1 hr): 880 ± 32 µL/min
- Intraocular Pressure (IOP), Treated ([2]; 3 hr): 12.8 ± 0.4 mmHg
- Pulsatile Blood flow, Treated ([2]; 3 hr): 957 ± 33 µL/min
- Intraocular Pressure (IOP), Treated ([2]; 5 hr): 13.8 ± 0.4 mmHg
- Pulsatile Blood flow, Treated ([2]; 5 hr): 963 ± 30 µL/min
- Intraocular Pressure (IOP), Treated ([2]; 12 hr): 15.6 ± 0.6 mmHg
- Pulsatile Blood flow, Treated ([2]; 12 hr): 924 ± 29 µL/min
- Intraocular Pressure (IOP), Treated ([2]; 24 hr): 19.7 ± 0.7 mmHg
- Pulsatile Blood flow, Treated ([2]; 24 hr): 682 ± 41 µL/min
- Intraocular Pressure (IOP), Difference ([2]; 0 hr): −0.1 ± 0.1 mmHg
- Pulsatile Blood flow, Difference ([2]; 0 hr): 3 ± 3 µL/min
- Intraocular Pressure (IOP), Difference ([2]; 1 hr): −6.4 ± 0.3 mmHg
- Pulsatile Blood flow, Difference ([2]; 1 hr): 255 ± 24 µL/min
- Intraocular Pressure (IOP), Difference ([2]; 3 hr): −6.5 ± 0.4 mmHg
- Pulsatile Blood flow, Difference ([2]; 3 hr): 332 ± 29 µL/min
- Intraocular Pressure (IOP), Difference ([2]; 5 hr): −5.3 ± 0.4 mmHg
- Pulsatile Blood flow, Difference ([2]; 5 hr): 328 ± 24 µL/min
- Intraocular Pressure (IOP), Difference ([2]; 12 hr): −3.9 ± 0.3 mmHg
- Pulsatile Blood flow, Difference ([2]; 12 hr): 290 ± 31 µL/min
- Intraocular Pressure (IOP), Difference ([2]; 24 hr): 0 ± 0 mmHg
- Pulsatile Blood flow, Difference ([2]; 24 hr): 10 ± 4 µL/min
- Intraocular Pressure (IOP), Treated ([3]; 0 hr): 15.5 ± 0.5 mmHg
- Pulsatile Blood flow, Treated ([3]; 0 hr): 675 ± 35 µL/min
- Intraocular Pressure (IOP), Treated ([3]; 2 hr): 12.0 ± 0.7 mmHg
- Pulsatile Blood flow, Treated ([3]; 2 hr): 818 ± 30 µL/min
- Intraocular Pressure (IOP), Treated ([3]; 6 hr): 13.2 ± 9.2 mmHg
- Pulsatile Blood flow, Treated ([3]; 6 hr): 802 ± 17 µL/min
- Intraocular Pressure (IOP), Treated ([3]; 12 hr): 14.0 ± 0.4 mmHg
- Pulsatile Blood flow, Treated ([3]; 12 hr): 780 ± 15 µL/min
- Intraocular Pressure (IOP), Treated ([3]; 24 hr): 15.0 ± 0.4 mmHg
- Pulsatile Blood flow, Treated ([3]; 24 hr): 758 ± 30 µL/min
- Intraocular Pressure (IOP), Treated ([3]; 28 hr): 12.4 ± 0.5 mmHg
- Pulsatile Blood flow, Treated ([3]; 28 hr): 790 ± 34 µL/min
- Intraocular Pressure (IOP), Treated ([3]; 52 hr): 12.8 ± 0.4 mmHg
- Pulsatile Blood flow, Treated ([3]; 52 hr): 764 ± 14 µL/min
- Intraocular Pressure (IOP), Treated ([3]; 78 hr): 11.8 ± 0.5 mmHg
- Pulsatile Blood flow, Treated ([3]; 78 hr): 832 ± 24 µL/min
- Intraocular Pressure (IOP), Treated ([3]; 100 hr): 12.7 ± 0.4 mmHg
- Pulsatile Blood flow, Treated ([3]; 100 hr): 812 ± 15 µL/min
- Intraocular Pressure (IOP), Difference ([3]; 0 hr): 0 ± 0.1 mmHg
- Pulsatile Blood flow, Difference ([3]; 0 hr): 4 ± 6 µL/min
- Intraocular Pressure (IOP), Difference ([3]; 2 hr): −3.4 ± 3.4 mmHg
- Pulsatile Blood flow, Difference ([3]; 2 hr): 127 ± 27 µL/min
- Intraocular Pressure (IOP), Difference ([3]; 6 hr): −2.6 ± 2.6 mmHg
- Pulsatile Blood flow, Difference ([3]; 6 hr): 131 ± 14 µL/min
- Intraocular Pressure (IOP), Difference ([3]; 12 hr): −1.8 ± 1.1 mmHg
- Pulsatile Blood flow, Difference ([3]; 12 hr): 104 ± 12 µL/min
- Intraocular Pressure (IOP), Difference ([3]; 24 hr): −0.6 ± 0.3 mmHg
- Pulsatile Blood flow, Difference ([3]; 24 hr): 82 ± 7 µL/min
- Intraocular Pressure (IOP), Difference ([3]; 28 hr): 2.9 ± 0.4 mmHg
- Pulsatile Blood flow, Difference ([3]; 28 hr): 132 ± 19 µL/min
- Intraocular Pressure (IOP), Difference ([3]; 52 hr): −2.7 ± 0.6 mmHg
- Pulsatile Blood flow, Difference ([3]; 52 hr): 110 ± 24 µL/min
- Intraocular Pressure (IOP), Difference ([3]; 78 hr): −3.7 ± 0.4 mmHg
- Pulsatile Blood flow, Difference ([3]; 78 hr): 156 ± 8 µL/min
- Intraocular Pressure (IOP), Difference ([3]; 100 hr): 3.3 ± 0.4 mmHg
- Pulsatile Blood flow, Difference ([3]; 100 hr): 138 ± 8.5 µL/min
- Intraocular Pressure (IOP), Treated ([1]; Table 4, treated glaucomatous eye, 0 hr): 33.4 ± 1.94 mmHg
- Intraocular Pressure (IOP), Treated ([1]; Table 4, treated glaucomatous eye, 1 hr): 26.3 ± 3.17 mmHg
- Intraocular Pressure (IOP), Treated ([1]; Table 4, treated glaucomatous eye, 3 hr): 21.7 ± 3.77 mmHg
- Intraocular Pressure (IOP), Treated ([1]; Table 4, treated glaucomatous eye, 8 hr): 21.9 ± 3.31 mmHg
- Intraocular Pressure (IOP), Treated ([1]; Table 4, treated glaucomatous eye, 10 hr): 22.1 ± 2.76 mmHg
- Intraocular Pressure (IOP), Treated ([1]; Table 4, treated glaucomatous eye, 12 hr): 21.8 ± 2.61 mmHg
- Intraocular Pressure (IOP), Treated ([1]; Table 4, treated glaucomatous eye, 24 hr): 24.6 ± 2.37 mmHg
- Intraocular Pressure (IOP), Treated ([1]; Table 4, treated glaucomatous eye, 26 hr): 26.3 ± 2.16 mmHg
- Intraocular Pressure (IOP), Treated ([1]; Table 4, treated glaucomatous eye, 28 hr): 25.0 ± 2.09 mmHg
- Intraocular Pressure (IOP), Treated ([1]; Table 4, treated glaucomatous eye, 30 hr): 25.0 ± 2.28 mmHg
- Intraocular Pressure (IOP), Treated ([1]; Table 4, treated glaucomatous eye, 36 hr): 27.3 ± 2.09 mmHg

SMILES: Clc1cccc(Cl)c1N=C1NCCN1 [Clonidine, clonidine]
- IOP, Clon-Timolol [4, 5]: −0.8 ± 0.5 mmHg
- PBF, Clon-Timolol [4, 5]: 192 ± 71 µL/min
- Vis. P. (visual performance), Clon-Timolol [4, 5]: 31 ± 9
- IOP [4, 6]: 20.0 ± 1.0 mmHg
- PBF [4, 6]: 557 ± 30 µL/min
- Rel. Scot (relative scotomas) [4, 6]: 3
- Vis. P. (visual performance) [4, 6]: 564 ± 30
- Stability of the differential light sensitivity, Clon-Timolol ([4]; number of the five glaucoma patients, clonidine treatment versus timolol treatment): 5 improved
- Stability of the differential light sensitivity ([4]; number of the five glaucoma patients, topical 0.25% clonidine b.i.d., years 6, 7 and 8): 5 improved

SMILES: CC(C)(C)NC[C@H](O)COc1nsnc1N1CCOCC1 [Timolol, timolol]
- IOP, Tim-Prior [4, 7]: −3.1 ± 0.6 mmHg
- PBF, Tim-Prior [4, 7]: -177 ± 33 µL/min
- Vis. P. (visual performance), Tim-Prior [4, 7]: −116 ± 2
- IOP [4, 8]: 20.8 ± 0.6 mmHg
- PBF [4, 8]: 365 ± 20 µL/min
- Rel. Scot (relative scotomas) [4, 8]: 3
- Vis. P. (visual performance) [4, 8]: 533 ± 20
- Stability of the differential light sensitivity, Tim-Prior ([4]; number of the five glaucoma patients, timolol treatment versus prior): 5 decreased
- Stability of the differential light sensitivity ([4]; number of the five glaucoma patients, topical timolol 0.25-0.50% b.i.d., years 3, 4 and 5): 5 decreased
